Data as given in patent publication US8192962B2, “Processes for detecting toxic substances” (Daikin Industries, Ltd., priority 2001, dated 2012).

System: Genes belonging to other category
Experiment: DNA chip mRNA expression in yeast, genes belonging to other category (Table 9)
Format: cell-based, Saccharomyces cerevisiae S288C
Method in brief: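 First, S288C yeast grown in YPD at 25° C. are dosed in log phase with one toxicant (growth-inhibiting, not lethal) for 2 h. Next, total RNA is extracted and poly(A) mRNA isolated and reverse-transcribed with Cy3/Cy5-dUTP. Finally, whole-genome chip fluorescence is read relative to unexposed cells.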

Measured: The level of expressed mRNA in the presence of chemical substance/The level of expressed mRNA in the absence of chemical substance

Cl[C@H]1[C@H](Cl)[C@@H](Cl)[C@@H](Cl)[C@H](Cl)[C@H]1Cl [(7), γ-hexachlorocyclohexane]
4.1: yeast gene YDR085C
2.6: yeast gene YKL139W
0.8: yeast gene YJL116C | yeast gene YMR094W | yeast gene YMR275C
1.1: yeast gene YBR214W | yeast gene YDR388W | yeast gene YJL089W | yeast gene YLR356W | yeast gene YMR276W | yeast gene YMR314W | yeast gene YOR124C | yeast gene YOR355W
3.9: yeast gene YLR136C
1.4: yeast gene YBL005W-A | yeast gene YCR004C | yeast gene YCR071C | yeast gene YDL238C | yeast gene YDR315C | yeast gene YKL008C | yeast gene YNL093W | yeast gene YNR069C | yeast gene YOR132W
1.0: yeast gene YCL027W | yeast gene YDR104C | yeast gene YER107C | yeast gene YHR071W | yeast gene YKL041W
2.2: yeast gene YGL229C | yeast gene YOL164W
2.0: yeast gene YDL008W | yeast gene YFL028C | yeast gene YKL039W | yeast gene YOR288C
1.3: yeast gene YER039C | yeast gene YGL158W | yeast gene YLR429W | yeast gene YOR185C | yeast gene YOR259C
1.2: yeast gene YCR088W | yeast gene YMR004W | yeast gene YNL007C | yeast gene YOR157C | yeast gene YPL149W
1.6: yeast gene YBL041W | yeast gene YDR115W | yeast gene YDR510W | yeast gene YNL006W | yeast gene YOR198C | yeast gene YPR103W | yeast gene YPR108W
0.3: yeast gene YFL022C
8.0: yeast gene YOR383C
0.9: yeast gene YDR084C | yeast gene YHR142W | yeast gene YPL089C
2.1: yeast gene YKL165C | yeast gene YKL193C
0.6: yeast gene YGR189C
0.2: yeast gene YKL096W
2.9: yeast gene YNL333W
1.8: yeast gene YEL066W | yeast gene YFL043C | yeast gene YKL013C | yeast gene YMR226C | yeast gene YOR036W | yeast gene YPL109C
2.8: yeast gene YDR259C | yeast gene YDR358W
1.9: yeast gene YAR010C | yeast gene YLR250W | yeast gene YLR362W | yeast gene YOR261C
0.7: yeast gene YDR481C | yeast gene YLR391W | yeast gene YOR181W
3.1: yeast gene YBL078C
1.7: yeast gene YJR086W | yeast gene YOL013C
7.0: yeast gene YGR213C
1.5: yeast gene YBL043W | yeast gene YCL020W | yeast gene YDR055W | yeast gene YER130C | yeast gene YGR136W | yeast gene YHR004C | yeast gene YHR139C | yeast gene YLR120C | yeast gene YMR104C | yeast gene YNR010W | yeast gene YPL154C
0.4: yeast gene YJR004C
5.7: yeast gene YLR327C
0.5: yeast gene YDR432W | yeast gene YEL042W | yeast gene YIL123W | yeast gene YIL140W
2.4: yeast gene YGR257C
3.3: yeast gene YLR178C | yeast gene YOR117W
